Source: patent US20100190237A1, “COMPOSITIONS AND METHODS FOR STORAGE OF BACTERIAL SUSPENSIONS” (priority 2007, published 2010)

Assays:
[1] = system: P. leiognathi; assay: ToxScreen-II toxicity assay (bacterial luminescence) with stored bacterial suspension; assay type: cell-based; conditions: light level after 30 minutes at 27° C.
Description: In order to determine how long a bacterial suspension stored in a solution according to an exemplary embodiment of the invention could be useful in a toxicity assay, a toxicity assay (ToxScreen-II, CheckLight Ltd, Qiryat Tivon, Israel) was conducted repeatedly over time.
In the assay, 0.01 mL aliquots were drawn from the bacterial suspension (P. leiognathi) in the medium at 4 time points during 30 days and incubated with chemical toxicants in assay buffer diluted in mineral water. Light level was determined after 30 minutes at 27° C.

[2] = system: luminescent bacteria (e.g. Photobacterium leiognathi, Vibrio fischeri, Vibrio harveyi); assay: titration of medium components: luminescence during long term storage at refrigeration temperatures; assay type: cell-based; conditions: for range I: concentrations that provided a marked improvement over negative control / range II: concentrations that produced no negative effect relative to negative control: based on results of examples 2 through 9; for effect of antibiotic on luminescence during long term storage: antibiotic at 15 mg/L in storage solution; for concentration that slowed the reduction in luminescence better than other tested concentrations: storage at -2 to +4° C. over several weeks, other components constant as in Table 1, pH 7.2
Description: In order to identify storage conditions suitable for a long term medium for a suspension of luminescent bacteria (e.g. Photobacterium leiognathi, Vibrio fischeri, Vibrio harveyi) different concentrations of monovalent salts, sugars, sources of divalent cations, protein mixtures, albumins and alcohols were tested.
Each of the medium components (including pH) was tested separately while all other components were kept at a constant concentration as indicated in Table 1. For titration of other components pH was held constant at 7.2. The effect on bacterial luminescence of each component at each tested concentration (or pH value) was determined over a period of several weeks.
In order to perform the titration of the medium components, a bacterial culture was spread on LA plates at about 300 colonies per plate after over night growth. Colonies were collected from plates with ASW and centrifuged (10000 g, 10 minutes, 4° C.). Harvested bacteria were resuspended in the different solutions to form experimental bacterial suspensions.
Experimental bacterial suspensions were stored at −2° C.-+4° C. Each week an aliquot of each experimental bacterial suspension was drawn and diluted in artificial seawater (ASW: 0.5M NaCl, 50 mM MgSO47H2O, 10 mM CaCl22H2O, 10 mM KCl)) supplemented with 50 ppm yeast extract/glucose and incubated at 26° C.-28° C. Light level was recorded after 30 minutes.

[3] = system: E. coli harboring the luminescence system of V. fischeri; conditions: titration as in Example 6; data not shown
Description: In order to determine the effect of monovalent salts on luminescence during long term storage at refrigeration temperatures, NaCl was added to medium at concentrations of 0.1, 0.5, 2.0, 3.0 and 4.5%. […] Assay of the effect of NaCl was as described in Example 1.

| Compound | Sensitivity of P. leiognathi to various toxicants ([1]; Day 1 of storage) [mg/L] | Sensitivity of P. leiognathi to various toxicants ([1]; Day 7 of storage) [mg/L] | Sensitivity of P. leiognathi to various toxicants ([1]; Day 18 of storage) [mg/L] | Sensitivity of P. leiognathi to various toxicants ([1]; Day 30 of storage) [mg/L] | range I: concentrations that provided a marked improvement over negative control [2] | range II: concentrations that produced no negative effect relative to negative control [2] | also measured |
| --- | --- | --- | --- | --- | --- | --- | --- |
| [Cl][Cd][Cl] [CdCl2] | 0.2 | 0.25 | 0.3 | 0.4 |  |  |  |
| Clc1ccc(C(c2ccc(Cl)cc2)C(Cl)(Cl)Cl)cc1 [DDT] | 0.007 | 0.006 | 0.004 | 0.006 |  |  |  |
| [K+].[K+].[O]=[Cr](=[O])([O-])[O][Cr](=[O])(=[O])[O-] [K2Cr2O7] | 0.5 | 0.7 | 0.5 | 0.6 |  |  |  |
| [Cl-].[Na+] [NaCl] |  |  |  |  | 2.0-3.0% | 1.0-3.0% | salt concentration determined to be useful (preserving luminescence) [3]: 0.8-0.85% |
| [Cl][Pb][Cl] [PbCl2] | 2 | 2.5 | 3 | 2.5 |  |  |  |
| CC1(C)S[C@@H]2[C@H](NC(=O)[C@H](N)c3ccccc3)C(=O)N2[C@H]1C(=O)O [ampicillin] |  |  |  |  |  |  | effect of antibiotic on luminescence during long term storage [2]: slowed the reduction in luminescence better than other tested antibiotics |
| O=C(N[C@H](CO)[C@H](O)c1ccc([N+](=O)[O-])cc1)C(Cl)Cl [chloramphenicol] |  |  |  |  |  |  | effect of antibiotic on luminescence during long term storage [2]: slowed the reduction in luminescence better than other tested antibiotics |
| CCO [ethanol] |  |  |  |  | 1.0-3.5% | 0.1-3.5% | concentration that slowed the reduction in luminescence better than other tested concentrations [2]: ≥ 1.5% |
| O[C@H]1[C@H](O)[C@@H](O)[C@H](O)[C@@H](O)[C@H]1O [inositol] |  |  |  |  | 5.0-7.0% | 0.5-7.0% | concentration that slowed the reduction in luminescence better than other tested concentrations [2]: 5% |
| [Cl-].[Cl-].[Mg+2] [magnesium, MgCl2] |  |  |  |  | 1.0 to 200 mM | 0.0 to 300 mM | concentration that slowed the reduction in luminescence better than other tested concentrations [2]: 200 mM |
| Bovine serum albumin [BSA] |  |  |  |  |  | 0.02-1.0% |  |
